Two molecules from patent EP0617288B1, “Long emission wavelength chemiluminescent compounds and their use in test assays” (Novartis AG, priority 1993, dated 1994) can be followed below.

Data set [1] can be described thus: Light emission spectra by Fast Spectral Scanning System (FSSS). The data set is classed as physicochemical. The following applies: for emission spectrum peak: figure legends FIGS. 2A-2E, 3A-3J; for Emission Max: in 0.5 ml acetonitrile, Flashing Reagent #1 and #2, maximum could vary by 0-4 nm between determinations; for Range: spectral region with signal intensity of above 5% of peak height. Here is the method:
The light emission spectra of LBAC's and the reference acridinium esters were determined by a Fast Spectral Scanning System (FSSS) of Photo Research (a division of Kollmorgen Corp) of Burbank, CA, U.S.A. The experiment was carried out in a dark room. Each sample was dissolved in HPLC grade acetonitrile at the concentration of 1 mg/ml or higher and diluted with the same solvent to obtain the sample solution in the concentration specified. A typical determination utilized 10 to 100 ug of each compound, with the exception of the angular benz[a]acridinium ester (2 mg), separately or mixed together in 0.5 ml acetonitrile contained in 13 x 100 mm borosilicate test tube. The tube was placed on a tube rack raised to a proper height. The FSSS optical head was placed in front of the tube at close distance and with its lens focused on the liquid in the tube. The sample solution was first treated with 0.35 ml of the Flashing Reagent #1 (Ciba Corning Diagnostics) containing 0.1 N HNO3 and 0.1% H2O2. […] The light which was generated instantaneously following the addition of the Reagent #2 was recorded by FSSS for 4 seconds except for 2-MeO-LEAE-Imidate which was recorded for 30 seconds starting from split second before the Reagent #2 was added.
Recorded emission spectra are shown in FIGS. 2A-2E, 3A-3J, and 4A-4D. FIGS. 2A-2E and 3A-3J show individual emission spectra of chemiluminescent compounds including an acridinium ring system and compounds including a benzacridinium ring system. […] The major portions of the original constituting spectra which remained unchanged were indeed non-overlapping. These important physical characteristics fulfill the prerequisite for two or more subclasses of chemiluminescent compounds to be utilized in test assays for detecting and/or quantitating at least two substances in a test sample, and particularly to multianalyte clinical diagnostic assays.

Data set [2] can be described thus: Kinetic study on light emission (time course up to 10 seconds). The following applies: normalized to 10 seconds. The data set is classed as physicochemical. Here is the method: A time course study over a period of up to 10 seconds was conducted to determine these percentages, by flashing the compounds and normalizing all the signals collected for different lengths of time to that of 10 seconds.

As for `Cc1cc(C(=O)OCc2ccccc2)cc(C)c1OC(=O)c1c2ccccc2[n+](C)c2ccc3ccccc3c12` [ABAC, (4-Benzyloxycarbonyl-2,6-dimethyl)phenyl 5-methyl-benz[a]acridinium-12-carboxylate methosulfate, reference compound], the emission spectrum peak result in data set [1] is reported as “≈ 440 nm”. For the same molecule, in data set [1], the “Emission Max” value is reported as 436-440 nm. Further, the Range in data set [1] is given as 410-530 nm. Also, in data set [1] (versus acridinium esters), the “difference of the emission maxima” value is given as 8-14 nm. In addition, the “Percent signal released over different lengths of time” value in data set [2] (0.5 s) was 3%; in data set [2] (1.0 s), 20%; in data set [2] (2.0 s), 52%; in data set [2] (4.0 s), 73%; in data set [2] (6.0 s), 89%; in data set [2] (10.0 s), 100%.
`CC(C)c1cc(C(=O)OCc2ccccc2)cc(C(C)C)c1OC(=O)c1c2ccccc2[n+](C)c2cc3ccccc3cc12` [DIP-LEAE-Bz, (4-Benzyloxycarbonyl-2,6-diisopropyl)phenyl 5-Methyl-benz[b]acridinium-12-carboxylate Fluorosulfonate]: the emission spectrum peak result in data set [1] is listed as “≈ 520 nm”. Besides, in data set [1], the “Emission Max” value worked out at 520 nm. Moreover, the Range in data set [1] is listed as 485-670 nm. Further, the “Percent signal released over different lengths of time” value in data set [2] (0.5 s) is 4%; in data set [2] (1.0 s) it was 26%; in data set [2] (2.0 s), 47%; in data set [2] (4.0 s) it was 67%; in data set [2] (6.0 s) it was 80%; in data set [2] (10.0 s), 100%.
